Here are results for 2 molecules from ChEMBL document CHEMBL1143942, “Deoxygenated phosphorothioate inositol phosphate analogs: synthesis, phosphatase stability, and binding affinity” (Bioorg Med Chem, 2008).

The nature of data set [1]: Displacement of [3H]Ins(1,4,5)P3 from Ins(1,4,5)P3 receptor in bovine adrenal cortex. The format is tissue-based, Bos taurus. Background: In a radioligand displacement assay an active substance lowers the binding of a labelled ligand.
Data set [2] is described as follows: Inhibition of alkaline phosphatase.
Data set [3] in a line: Chemical stability in presence of alkaline phosphatase. The format is physicochemical.

Calls of active or inactive are those of the source. The rule behind the calls is not given here.

Turning to `O[C@@H]1[C@@H](OP(O)(O)=S)[C@H](OP(O)(O)=S)CC[C@H]1OP(O)(O)=S`, in data set [1], binding was put at a Kd of 0.81 µM. Also, the outcome in data set [2] was inactive. In addition, the Stability result in data set [3] (isolated protein) was “Stable”.

With `O=P(O)(O)O[C@@H]1[C@H](O)[C@H](O)[C@@H](OP(=O)(O)O)[C@H](OP(=O)(O)O)[C@H]1O` [INS(1,4,5)P3], the dissociation constant Kd (as a rule, the equilibrium constant for the complex coming apart) in data set [3] is 0.054 µM.
